Experimental data from ChEMBL document CHEMBL1135859, “Indinavir analogues with blocked metabolism sites as HIV protease inhibitors with improved pharmacological profiles and high potency against PI-resistant viral strains” (Bioorg Med Chem Lett, 2002).
pIC50: −log10 of the molar value.

Key:
MT4 = test: Concentration required to inhibit the spread of viral infection in MT-4 human T-lymphoid cells infected by the NL4-3 virus; type: functional; settings: read-out: CIC95
[1] = target: T1, Human immunodeficiency virus type 1 protease (Human immunodeficiency virus 1, UniProt Q72874); test: Inhibitory concentration required to inhibit cleavage of a substrate by the wild-type HIV-1 Protease
[2] = Half life in dogs; type: ADME, organism-based, Canis lupus familiaris; settings: dog, in vivo
[3] = Bioavailability in dog; type: ADME, organism-based, Canis lupus familiaris; settings: in vivo
[4] = Maximum concentration was determined; type: ADME, organism-based, Canis lupus familiaris; settings: dog, in vivo
[5] = Area under curve in dogs; type: ADME, organism-based, Canis lupus familiaris; settings: dog, in vivo
[6] = test system: Human immunodeficiency virus 1; test: Concentration required to control the spread of HIV mutant strain 4X virus; type: functional; settings: read-out: CIC95
[7] = test system: Human immunodeficiency virus 1; test: Concentration required to control the spread of HIV mutant strain K-60C; type: functional; settings: read-out: CIC95
[8] = test system: Human immunodeficiency virus 1; test: Concentration required to control the spread of HIV mutant strain Q-60C; type: functional; settings: read-out: CIC95
[9] = test system: Human immunodeficiency virus 1; test: Concentration required to control the spread of HIV mutant strain V-18C; type: functional; settings: read-out: CIC95
[10] = target: T1, Human immunodeficiency virus type 1 protease; test: Inhibitory concentration required to inhibit cleavage of a substrate by the wild-type HIV-1 protease enzyme
[11] = test system: Human immunodeficiency virus 1; test: (§1) Concentration required to control the spread of HIV mutant strain WT; type: functional; settings: read-out: CIC95
[12] = Half life was determined; type: ADME, organism-based, Canis lupus familiaris; settings: dog, in vivo
[13] = Area under curve was determined; type: ADME, organism-based, Canis lupus familiaris; settings: dog, in vivo
[14] = Bioavailability; type: ADME, organism-based, Canis lupus familiaris; settings: dog, in vivo
[15] = test system: Human immunodeficiency virus 1; test: as §1; settings: Human immunodeficiency virus 1, read-out: CIC95

| Structure (SMILES) | IC95 (MT4) [nM] | pIC50 [1] | half-life [2] [min] | bioavailability [3] [%] | Cmax [4] [µM] | AUC [5] [µM·h] | IC95 [6] [nM] | IC95 [7] [nM] | IC95 [8] [nM] | IC95 [9] [nM] | pIC50 [10] | IC95 [11] [nM] | half-life [12] [min] | AUC [13] [µM·h] | bioavailability [14] [%] | IC95 [15] [nM] |
| --- | --- | --- | --- | --- | --- | --- | --- | --- | --- | --- | --- | --- | --- | --- | --- | --- |
| CC(C)(C)NC(=O)[C@@H]1CN(C(C)(C)c2cccnc2)CCN1C[C@@H](O)C[C@@H](Cc1ccccc1)C(=O)N[C@H]1c2ccccc2C[C@H]1O | 50 | 8.94 | – | – | – | – | – | – | – | – | – | – | – | – | – | – |
| CC(C)(C)NC(=O)[C@@H]1CN(C(C)(C)c2cc3cnccc3o2)CCN1C[C@@H](O)C[C@@H](Cc1ccccc1)C(=O)N[C@H]1c2ccccc2OC[C@H]1O | < 8 | – | 62.4 | 81 | 8.85 | 7.43 | 31 | 500 | 250 | 250 | 10.12 | < 8 | – | – | – | – |
| CC(C)(C)NC(=O)[C@@H]1CN(C(C)(C)c2cc3cnccc3o2)CCN1C[C@@H](O)C[C@@H](Cc1ccccc1)C(=O)N[C@H]1c2ccccc2C[C@H]1O | 15 | 9.82 | 47 | 44.3 | 16.6 | 14.1 | 625 | > 1000 | > 1000 | > 1000 | – | 15 | – | – | – | – |
| CC(C)(C)NC(=O)[C@@H]1CN(Cc2cc3cnccc3o2)CCN1C[C@@H](O)C[C@@H](Cc1ccccc1)C(=O)N[C@H]1c2ccccc2C[C@H]1O | 15 | 9.64 | – | – | – | – | – | – | – | – | – | – | – | – | – | – |
| CC(C)(C)NC(=O)[C@@H]1CN(Cc2cccnc2)CCN1C[C@@H](O)C[C@@H](Cc1ccccc1)C(=O)N[C@H]1c2ccccc2C[C@H]1O.O [INDINAVIR] | 50 | – | – | – | – | – | 500 | > 3000 | > 1000 | 1500 | – | – | 38 | 12.5 | 71.6 | 50.5 |
